Data published in ChEMBL document CHEMBL4627373, “Antitubercular Ilamycins from Marine-Derived Streptomyces atratus SCSIO ZH16 ΔilaR” (J Nat Prod, 2020).
*1 amine or outer side, *2 acyl side, *3 side chain or, on linkers, in order; H or OH if unused. Where a SMILES comes first, the peptide text is derived from it. [ ]: non-standard residue; d: D form. Trp(1-(1,1-Me2-allyl)) = C=CC(C)(C)n1cc(C[C@H](N)C(=O)O)c2ccccc21; X6 = C=C[C@](C)(CO)n1cc(C[C@H](N[*:1])C(=O)[*:2])c2ccccc21; Tyr(3-NO2) = N[C@@H](Cc1ccc(O)c([N+](=O)[O-])c1)C(=O)O; X7 = CN([C@@H](C[C@@](C)(O)C(=O)O)C(=O)[*:2])[*:1]; X2 = CN([C@@H](C[C@H](CO)C(=O)O)C(=O)[*:2])[*:1]; X4 = C[C@H](C[C@@H](C(=O)[*:2])N(C)[*:1])C(=O)O; X1 = CN([C@@H](C[C@@](C)(O)CO)C(=O)[*:2])[*:1]; X5 = O=CNc1cc(C[C@H](N[*:1])C(=O)[*:2])ccc1O; X3 = CN([C@@H](CC(CO)CO)C(=O)[*:2])[*:1]; Gly(E-crotyl) = C/C=C/C[C@H](N)C(=O)O; NMeMet(O) = CN[C@@H](CCS(C)=O)C(=O)O; NMeL = CN[C@@H](CC(C)C)C(=O)O

What was measured:
HepG2 = assay: Cytotoxicity against human HepG2 cells assessed as reduction in cell viability after 24 hrs by CCK8 assay; assay type: functional, cell-based; conditions: HepG2, 24 h
HeLa = assay: Cytotoxicity against human HeLa cells assessed as reduction in cell viability after 24 hrs by CCK8 assay; assay type: functional, cell-based
MCF7 = assay: Cytotoxicity against human MCF7 cells assessed as reduction in cell viability after 24 hrs by CCK8 assay; assay type: functional, cell-based; conditions: MCF7, 24 h
[1] = test system: Mycobacterium tuberculosis; assay: Antitubercular activity against Mycobacterium tuberculosis H37Rv assessed as reduction in microbial growth by broth dilution method; assay type: functional
L02 = assay: Cytotoxicity against human LO2 cells assessed as reduction in cell viability after 24 hrs by CCK8 assay; assay type: cell-based; conditions: L02, 24 h
A549 = assay: Cytotoxicity against human A549 cells assessed as reduction in cell viability after 24 hrs by CCK8 assay; assay type: functional, cell-based; conditions: A549, 24 h
[2] = Cytotoxicity against human HUVEC12 cells assessed as reduction in cell viability after 24 hrs by CCK8 assay; assay type: cell-based
RKO = assay: Cytotoxicity against human RKO cells assessed as reduction in cell viability after 24 hrs by CCK8 assay; assay type: functional, cell-based

Compound	IC50 (HepG2) [µM]	IC50 (HeLa) [µM]	IC50 (MCF7) [µM]	MIC [1] [µM]	IC50 (L02) [µM]	IC50 (A549) [µM]	IC50 [2] [µM]	IC50 (RKO) [µM]
C=CC(C)(C)n1cc(C[C@@H]2NC(=O)[C@H](C/C=C/C)NC(=O)[C@H](CC(C)C)N3C(=O)[C@H](C[C@H](C)[C@H]3O)N(C)C(=O)[C@H](C)NC(=O)[C@H](Cc3ccc(O)c([N+](=O)[O-])c3)NC(=O)[C@H](CC(C)C)N(C)C2=O)c2ccccc21	3.7	3.1	3.1	0.0098	10	4.3	15	7.5
C=C[C@](C)(CO)n1cc(C[C@@H]2NC(=O)[C@H](C/C=C/C)NC(=O)[C@H](CC(C)C)N3C(=O)[C@H](C[C@@](C)(O)[C@H]3O)N(C)C(=O)[C@H](C)NC(=O)[C@H](Cc3ccc(O)c([N+](=O)[O-])c3)NC(=O)[C@H](CC(C)C)N(C)C2=O)c2ccccc21	> 50	14	27	1.4	22	> 50	> 50	22
C=CC(C)(C)n1cc(C[C@@H]2NC(=O)[C@H](C/C=C/C)NC(=O)[C@H](CC(C)C)N3C(=O)[C@H](C[C@H](C)[C@H]3OC)N(C)C(=O)[C@H](C)NC(=O)[C@H](Cc3cccc([N+](=O)[O-])c3)NC(=O)[C@H](CC(C)C)N(C)C2=O)c2ccccc21	–	–	–	1.2	–	–	–	–
C=C[C@](C)(CO)n1cc(C[C@@H]2NC(=O)[C@H](C/C=C/C)NC(=O)[C@H](CC(C)C)N3C(=O)[C@H](C[C@H](C)[C@H]3O)N(C)C(=O)[C@H](C)NC(=O)[C@H](Cc3ccc(O)c([N+](=O)[O-])c3)NC(=O)[C@H](CC(C)C)N(C)C2=O)c2ccccc21	> 50	28	33	0.0096	31	34	47	19
C=CC(C)(C)n1cc(C[C@@H]2NC(=O)[C@H](C/C=C/C)NC(=O)[C@H](CC(C)C)N3C(=O)[C@H](C[C@@H](CO)[C@H]3O)N(C)C(=O)[C@H](C)NC(=O)[C@H](Cc3ccc(O)c([N+](=O)[O-])c3)NC(=O)[C@H](CC(C)C)N(C)C2=O)c2ccccc21	22	7.2	5.6	1.4	16	19	12	7.3
C=CC(C)(C)n1cc(C[C@@H]2NC(=O)[C@H](C/C=C/C)NC(=O)[C@H](CC(C)C)NC(=O)[C@H](CC[S+](C)[O-])N(C)C(=O)[C@H](C)NC(=O)[C@H](Cc3ccc(O)c([N+](=O)[O-])c3)NC(=O)[C@H](CC(C)C)N(C)C2=O)c2ccccc21 (some centres not stated) (cyclo(A[NMeMet(O)]L[Gly(E-crotyl)][Trp(1-(1,1-Me2-allyl))][NMeL][Tyr(3-NO2)]))	29	14	22	1.4	> 50	25	28	37
C=CC(C)(C)n1cc(C[C@@H]2NC(=O)[C@H](C/C=C/C)NC(=O)[C@H](CC(C)C)NC(=O)[C@H](C[C@@](C)(O)CO)N(C)C(=O)[C@H](C)NC(=O)[C@H](Cc3ccc(O)c([N+](=O)[O-])c3)NC(=O)[C@H](CC(C)C)N(C)C2=O)c2ccccc21 (cyclo(A[X1]L[Gly(E-crotyl)][Trp(1-(1,1-Me2-allyl))][NMeL][Tyr(3-NO2)]))	> 50	49	> 50	2.3	> 50	> 50	> 50	> 50
C=CC(C)(C)n1cc(C[C@@H]2NC(=O)[C@H](C/C=C/C)NC(=O)[C@H](CC(C)C)NC(=O)[C@H](C[C@H](CO)C(=O)O)N(C)C(=O)[C@H](C)NC(=O)[C@H](Cc3ccc(O)c([N+](=O)[O-])c3)NC(=O)[C@H](CC(C)C)N(C)C2=O)c2ccccc21 (cyclo(A[X2]L[Gly(E-crotyl)][Trp(1-(1,1-Me2-allyl))][NMeL][Tyr(3-NO2)]))	> 50	> 50	> 50	9.5	> 50	> 50	> 50	> 50
C=CC(C)(C)n1cc(C[C@@H]2NC(=O)[C@H](C/C=C/C)NC(=O)[C@H](CC(C)C)NC(=O)[C@H](CC(CO)CO)N(C)C(=O)[C@H](C)NC(=O)[C@H](Cc3ccc(O)c([N+](=O)[O-])c3)NC(=O)[C@H](CC(C)C)N(C)C2=O)c2ccccc21 (cyclo(A[X3]L[Gly(E-crotyl)][Trp(1-(1,1-Me2-allyl))][NMeL][Tyr(3-NO2)]))	> 50	17	38	1.2	> 50	> 50	> 50	41
C=CC(C)(C)n1cc(C[C@@H]2NC(=O)[C@H](C/C=C/C)NC(=O)[C@H](CC(C)C)NC(=O)[C@H](C[C@@H](C)C(=O)O)N(C)C(=O)[C@H](C)NC(=O)[C@H](Cc3ccc(O)cc3)NC(=O)[C@H](CC(C)C)N(C)C2=O)c2ccccc21 (cyclo(A[X4]L[Gly(E-crotyl)][Trp(1-(1,1-Me2-allyl))][NMeL]Y))	> 50	> 50	> 50	10	> 50	> 50	> 50	> 50
C=CC(C)(C)n1cc(C[C@@H]2NC(=O)[C@H](C/C=C/C)NC(=O)[C@H](CC(C)C)NC(=O)[C@H](C[C@@H](C)C(=O)O)N(C)C(=O)[C@H](C)NC(=O)[C@H](Cc3ccc(O)c([N+](=O)[O-])c3)NC(=O)[C@H](CC(C)C)N(C)C2=O)c2ccccc21 (cyclo(A[X4]L[Gly(E-crotyl)][Trp(1-(1,1-Me2-allyl))][NMeL][Tyr(3-NO2)]))	> 50	> 50	> 50	1.2	> 50	> 50	> 50	> 50
C=CC(C)(C)n1cc(C[C@@H]2NC(=O)[C@H](C/C=C/C)NC(=O)[C@H](CC(C)C)NC(=O)[C@H](C[C@@H](C)C(=O)O)N(C)C(=O)[C@H](C)NC(=O)[C@H](Cc3ccc(O)c(NC=O)c3)NC(=O)[C@H](CC(C)C)N(C)C2=O)c2ccccc21 (cyclo(A[X4]L[Gly(E-crotyl)][Trp(1-(1,1-Me2-allyl))][NMeL][X5]))	> 50	> 50	> 50	9.6	> 50	> 50	> 50	> 50
C=C[C@](C)(CO)n1cc(C[C@@H]2NC(=O)[C@H](C/C=C/C)NC(=O)[C@H](CC(C)C)NC(=O)[C@H](C[C@@H](C)C(=O)O)N(C)C(=O)[C@H](C)NC(=O)[C@H](Cc3ccc(O)c([N+](=O)[O-])c3)NC(=O)[C@H](CC(C)C)N(C)C2=O)c2ccccc21 (cyclo(A[X4]L[Gly(E-crotyl)][X6][NMeL][Tyr(3-NO2)]))	> 50	45	> 50	9.5	49	30	48	> 50
C=C[C@](C)(CO)n1cc(C[C@@H]2NC(=O)[C@H](C/C=C/C)NC(=O)[C@H](CC(C)C)NC(=O)[C@H](C[C@@](C)(O)C(=O)O)N(C)C(=O)[C@H](C)NC(=O)[C@H](Cc3ccc(O)c([N+](=O)[O-])c3)NC(=O)[C@H](CC(C)C)N(C)C2=O)c2ccccc21 (cyclo(A[X7]L[Gly(E-crotyl)][X6][NMeL][Tyr(3-NO2)]))	> 50	> 50	> 50	0.24	> 50	> 50	> 50	> 50
COc1cccc2c1C(=O)c1c(O)c3c(c(O)c1C2=O)C[C@@](O)(C(=O)CO)C[C@@H]3O[C@H]1C[C@H](N)[C@H](O)[C@H](C)O1 [DOXORUBICIN]	0.8	0.5	0.4	–	–	0.7	4	0.3
CO[C@H]1/C=C/O[C@@]2(C)Oc3c(C)c(O)c4c(O)c(c(/C=N/N5CCN(C)CC5)c(O)c4c3C2=O)NC(=O)/C(C)=C\C=C\[C@H](C)[C@H](O)[C@@H](C)[C@@H](O)[C@@H](C)[C@H](OC(C)=O)[C@@H]1C [RIFAMPIN]	–	–	–	0.3	–	–	–	–
